Reference: patent US8629328B2 (Monsanto Technology LLC, priority 2006, dated 2014)

Experiments:
[1] = tested on: non-transgenic soybean plants; test: Greenhouse, post-V3 applications of different auxin-like herbicides, visual % injury; assay type: in vivo
Experimental: (§1) This was carried out by applying various concentrations of commercially available formulations of other auxin-like herbicides such as 2,4-D (Helena, Collierville, Tenn.), MCPA (Agriliance, St. Paul, Minn.), triclopyr (GARLON 3A; Dow Elanco, Indianapolis, Ind.), clopyralid (STINGER; Dow Elanco, Indianapolis, Ind.), picloram (TORDON 22K; Dow Elanco, Indianapolis, Ind.), or Banvel or CLARITY (BASF, Raleigh, N.C.) to DMO containing plant tissues or plants.
(§2) Transgenic soybean plants were obtained by Agrobacterium-mediated transformation of soybean explants with a DMO-encoding polynucleotide as described above for the events designated Events 1-4. A non-transgenic line was used as a control.
(§3) Applications were made when plants had reached V-3 stage.
(§4) Data were collected using a palm top computer and analyzed using standard statistical methods. The results shown in Table 10 clearly indicate tolerance of transgenic soybean to other auxin-like herbicides such as 2,4-D and MCPA relative to the non-transgenic line.

[2] = tested on: transgenic soybean plants with DMO-encoding polynucleotide (Events 1-4); test: as above; assay type: in vivo; conditions: for tolerance of DMO polynucleotide containing soybean: post-V3 application
Experimental: as §1, §2, §3, §4

Marestail Resistant (KY) = test: Dicamba, glyphosate and their combination on marestail; assay type: in vivo, Conyza canadensis; conditions: glyphosate formulation 200 g/ha
MARESTAIL (CA) Resistant = test: Control of marestail by dicamba or glyphosate, treated at rosette leaf stage; assay type: in vivo, Conyza canadensis; conditions: glyphosate formulation 2100 g/ha
Excerpt: (§5) Marestail is one of the major weeds in a crop field. Marestail is effectively controlled by glyphosate, but the development of methods for controlling this common weed with other herbicides is important to minimize opportunities for herbicide tolerance to develop.

MARESTAIL (KY) Resistant = test: as above; assay type: in vivo, Conyza canadensis; conditions: glyphosate formulation 2100 g/ha
Excerpt: as §5

SMILES | % injury at 14 DAT ([1]; 280 g ae/ha post-V3) [%] | % injury at 14 DAT ([1]; 561 g ae/ha post-V3) [%] | % injury at 14 DAT ([1]; 1120 g ae/ha post-V3) [%] | % injury at 14 DAT ([2]; Event 1, 280 g ae/ha post-V3) [%] | % injury at 14 DAT ([2]; Event 1, 561 g ae/ha post-V3) [%] | % injury at 14 DAT ([2]; Event 1, 1120 g ae/ha post-V3) [%] | % injury at 14 DAT ([2]; Event 2, 280 g ae/ha post-V3) [%] | % injury at 14 DAT ([2]; Event 2, 561 g ae/ha post-V3) [%] | % injury at 14 DAT ([2]; Event 2, 1120 g ae/ha post-V3) [%] | % injury at 14 DAT ([2]; Event 3, 280 g ae/ha post-V3) [%] | % injury at 14 DAT ([2]; Event 3, 561 g ae/ha post-V3) [%] | % injury at 14 DAT ([2]; Event 3, 1120 g ae/ha post-V3) [%] | % injury at 14 DAT ([2]; Event 4, 280 g ae/ha post-V3) [%] | % injury at 14 DAT ([2]; Event 4, 561 g ae/ha post-V3) [%] | % injury at 14 DAT ([2]; Event 4, 1120 g ae/ha post-V3) [%] | % injury at 21 DAT ([1]; 280 g ae/ha post-V3) [%] | % injury at 21 DAT ([1]; 561 g ae/ha post-V3) [%] | % injury at 21 DAT ([1]; 1120 g ae/ha post-V3) [%] | % injury at 21 DAT ([2]; Event 1, 280 g ae/ha post-V3) [%] | % injury at 21 DAT ([2]; Event 1, 561 g ae/ha post-V3) [%] | also measured
O=C(O)c1nc(Cl)ccc1Cl [Clopyralid, 3,6-dichloro-2-pyridinecarboxylic acid] | 99.3 | 100.0 | 100.0 | 99.2 | 100.0 | 100.0 | 98.2 | 99.7 | 100.0 | 99.3 | 100.0 | 100.0 | 99.7 | 100.0 | 100.0 | – | – | – | – | – | –
O=C(O)CNCP(=O)(O)O [glyphosate, N-phosphonomethylglycine] | – | – | – | – | – | – | – | – | – | – | – | – | – | – | – | – | – | – | – | – | % Injury (18 DAT) (Marestail Resistant (KY)): 6%; % Injury (21 DAT) (MARESTAIL (CA) Resistant): about 77%; % Injury (21 DAT) (MARESTAIL (KY) Resistant): about 91%
O=C(O)COc1ccc(Cl)cc1Cl [2,4-D, (2,4-dichlorophenoxy)acetic acid] | – | – | – | – | – | – | – | – | – | – | – | – | – | – | – | 86.8 | 100.0 | 100.0 | 58.3 | 75.0 | % injury at 21 DAT ([2]; Event 1, 1120 g ae/ha post-V3): 100.0%; % injury at 21 DAT ([2]; Event 2, 280 g ae/ha post-V3): 64.2%; % injury at 21 DAT ([2]; Event 2, 561 g ae/ha post-V3): 94.7%; % injury at 21 DAT ([2]; Event 2, 1120 g ae/ha post-V3): 100.0%; % injury at 21 DAT ([2]; Event 3, 280 g ae/ha post-V3): 40.0%; % injury at 21 DAT ([2]; Event 3, 561 g ae/ha post-V3): 85.0%; % injury at 21 DAT ([2]; Event 3, 1120 g ae/ha post-V3): 100.0%; % injury at 21 DAT ([2]; Event 4, 280 g ae/ha post-V3): 45.8%; % injury at 21 DAT ([2]; Event 4, 561 g ae/ha post-V3): 84.2%; % injury at 21 DAT ([2]; Event 4, 1120 g ae/ha post-V3): 100.0%; tolerance of DMO polynucleotide containing soybean [2]: tolerant to low levels
Cc1cc(Cl)ccc1OCC(=O)O [MCPA, (4-chloro-2-methylphenoxy)acetic acid] | – | – | – | – | – | – | – | – | – | – | – | – | – | – | – | 93.0 | 98.3 | 100.0 | 72.5 | 99.3 | % injury at 21 DAT ([2]; Event 1, 1120 g ae/ha post-V3): 100.0%; % injury at 21 DAT ([2]; Event 2, 280 g ae/ha post-V3): 55.0%; % injury at 21 DAT ([2]; Event 2, 561 g ae/ha post-V3): 95.0%; % injury at 21 DAT ([2]; Event 2, 1120 g ae/ha post-V3): 99.7%; % injury at 21 DAT ([2]; Event 3, 280 g ae/ha post-V3): 55.0%; % injury at 21 DAT ([2]; Event 3, 561 g ae/ha post-V3): 95.8%; % injury at 21 DAT ([2]; Event 3, 1120 g ae/ha post-V3): 100.0%; % injury at 21 DAT ([2]; Event 4, 280 g ae/ha post-V3): 88.3%; % injury at 21 DAT ([2]; Event 4, 561 g ae/ha post-V3): 98.8%; % injury at 21 DAT ([2]; Event 4, 1120 g ae/ha post-V3): 100.0%; tolerance of DMO polynucleotide containing soybean [2]: tolerant to low levels
Nc1c(Cl)c(Cl)nc(C(=O)O)c1Cl [Picloram, 4-amino-3,5,6-trichloro-2-pyridinecarboxylic acid] | 99.3 | 100.0 | 100.0 | 99.7 | 100.0 | 100.0 | 99.3 | 100.0 | 100.0 | 99.3 | 99.7 | 100.0 | 99.3 | 100.0 | 100.0 | – | – | – | – | – | –
